Test results from PubChem BioAssay AID260 (DTP/NCI, 2004).
Where “and” joins values, the source holds several entries; their conditions need not be identical. Equal values may be shown once. Toxic doses and inconclusive results are not listed.

System: CD2F1 mice, intracerebral L1210 leukemia, survival T/C
Assay: NCI In Vivo Anticancer Drug Screen. Data for tumor model L1210 Leukemia (intracerebral) in CD2F1 (CDF1) mice
Settings: higher = longer survival
Protocol: The antitumor activity of compounds was measured in mice bearing transplantable tumors. Survival or tumor size were measured and the results are expressed as the measurement made in the treated group (T) divided by the measurement made in the vehicle treated control group (C). The tumor model used in this assay is L1210 Leukemia (intracerebral) in CD2F1 (CDF1) mice

[1] = endpoint: median survival time, dose: 0.5 mg/kg/injection, schedule: Q01DX009 (ip), vehicle: saline
[2] = endpoint: median survival time, dose: 1.0 mg/kg/injection, schedule: Q01DX009 (ip), vehicle: saline
[3] = endpoint: median survival time, dose: 2.0 mg/kg/injection, schedule: Q01DX009 (ip), vehicle: saline
[4] = endpoint: median survival time, dose: 4.0 mg/kg/injection, schedule: Q01DX009 (ip), vehicle: saline
[5] = endpoint: median survival time, dose: 8.0 mg/kg/injection, schedule: Q01DX009 (ip), vehicle: saline
[6] = endpoint: median survival time, dose: 128.0 mg/kg/injection, schedule: Q01DX005 (ip), vehicle: Klucel (hydroxypropylcellulose) (HPC)
[7] = endpoint: median survival time, dose: 256.0 mg/kg/injection, schedule: Q01DX005 (ip), vehicle: Klucel (hydroxypropylcellulose) (HPC)
[8] = endpoint: median survival time, dose: 40.0 mg/kg/injection, schedule: Q01DX001 (ip), vehicle: saline
[9] = endpoint: median survival time, dose: 80.0 mg/kg/injection, schedule: Q01DX001 (ip), vehicle: saline
[10] = endpoint: median survival time, dose: 160.0 mg/kg/injection, schedule: Q01DX001 (ip), vehicle: saline
[11] = endpoint: median survival time, dose: 320.0 mg/kg/injection, schedule: Q01DX001 (ip), vehicle: saline

O=NN(CCCl)C(=O)NC1C(O)C(O)C(O)C(O)C1O (centres undefined)
T/C (endpoint: mean survival time, dose: 9.0 mg/kg/injection, schedule: Q01DX001 (ip), vehicle: saline): 110 % of control | T/C (endpoint: mean survival time, dose: 13.0 mg/kg/injection, schedule: Q01DX001 (ip), vehicle: saline): 117 % of control | T/C (endpoint: mean survival time, dose: 44.0 mg/kg/injection, schedule: Q01DX001 (ip), vehicle: saline): 115 % of control | T/C (endpoint: mean survival time, dose: 67.0 mg/kg/injection, schedule: Q01DX001 (ip), vehicle: saline): 95 % of control

COC1OC(CO)C(O)C(NC(=O)N(C)N=O)C1O (centres undefined)
T/C [1]: 102 % of control | T/C [2]: 107 % of control | T/C [3]: 111 % of control | T/C [4]: 111 % of control | T/C [5]: 116 % of control | T/C (endpoint: median survival time, dose: 16.0 mg/kg/injection, schedule: Q01DX009 (ip), vehicle: saline): 102 % of control

CC(C)=CCC1=C(O)c2ccccc2C(=O)C1=O
T/C (endpoint: median survival time, dose: 32.0 mg/kg/injection, schedule: Q01DX005 (ip), vehicle: Klucel (hydroxypropylcellulose) (HPC)): 96 % of control and 100 % of control | T/C (endpoint: median survival time, dose: 64.0 mg/kg/injection, schedule: Q01DX005 (ip), vehicle: Klucel (hydroxypropylcellulose) (HPC)): 97 % of control and 102 % of control | T/C [6]: 92 % of control and 93 % of control | T/C [7]: 96 % of control and 105 % of control

COc1ccc(CC2C(=O)NC(C)C(=O)N(C)C3C(=O)N(C)C(Cc4ccc(O)c(c4)Oc4ccc(cc4)C3O)C(=O)NC(C)C(=O)NC(C)C(=O)N2C)cc1 (centres undefined)
T/C (endpoint: median survival time, dose: 0.12 mg/kg/injection, schedule: Q01DX009 (ip), vehicle: Klucel (hydroxypropylcellulose) (HPC)): 101 % of control | T/C (endpoint: median survival time, dose: 0.13 mg/kg/injection, schedule: Q01DX009 (ip), vehicle: saline): 93 % of control and 117 % of control | T/C (endpoint: median survival time, dose: 0.25 mg/kg/injection, schedule: Q01DX009 (ip), vehicle: Klucel (hydroxypropylcellulose) (HPC)): 93 % of control and 101 % of control | T/C (endpoint: median survival time, dose: 0.25 mg/kg/injection, schedule: Q01DX009 (ip), vehicle: saline): 124 % of control and 91 % of control | T/C (endpoint: median survival time, dose: 0.5 mg/kg/injection, schedule: Q01DX009 (ip), vehicle: Klucel (hydroxypropylcellulose) (HPC)): 98 % of control and 100 % of control | T/C [1]: 124 % of control and 111 % of control | T/C (endpoint: median survival time, dose: 1.0 mg/kg/injection, schedule: Q01DX009 (ip), vehicle: Klucel (hydroxypropylcellulose) (HPC)): 97 % of control and 100 % of control | T/C [2]: 104 % of control and 107 % of control | T/C [3]: 109 % of control and 111 % of control

O=P1(NCCCl)OCCCN1CCCl (centres undefined)
T/C [8]: 97 % of control | T/C [9]: 102 % of control | T/C [10]: 105 % of control | T/C [11]: 113 % of control

O=P1(N(CCCl)CCCl)NCCCO1 (centres undefined)
T/C [8]: 100 % of control | T/C [9]: 104 % of control | T/C [10]: 112 % of control | T/C [11]: 105 % of control

CC1CC(C)/C(=N/NC(N)=S)C(C(O)CC2CC(=O)NC(=O)C2)C1 (centres undefined)
T/C (endpoint: mean survival time, dose: 25.0 mg/kg/injection, schedule: Q01DX009 (ip), vehicle: saline): 101 % of control | T/C (endpoint: mean survival time, dose: 50.0 mg/kg/injection, schedule: Q01DX009 (ip), vehicle: saline): 100 % of control | T/C (endpoint: mean survival time, dose: 100.0 mg/kg/injection, schedule: Q01DX009 (ip), vehicle: saline): 105 % of control | T/C (endpoint: mean survival time, dose: 200.0 mg/kg/injection, schedule: Q01DX009 (ip), vehicle: saline): 106 % of control | T/C (endpoint: mean survival time, dose: 400.0 mg/kg/injection, schedule: Q01DX009 (ip), vehicle: saline): 101 % of control

Nc1nc(=S)c2[nH]cnc2[nH]1
T/C (endpoint: mean survival time, dose: 0.13 mg/kg/injection, schedule: Q01DX009 (ip), vehicle: other): 102 % of control | T/C (endpoint: mean survival time, dose: 0.25 mg/kg/injection, schedule: Q01DX009 (ip), vehicle: other): 111 % of control | T/C (endpoint: mean survival time, dose: 0.5 mg/kg/injection, schedule: Q01DX009 (ip), vehicle: other): 108 % of control | T/C (endpoint: mean survival time, dose: 1.0 mg/kg/injection, schedule: Q01DX009 (ip), vehicle: other): 114 % of control

COc1cccc2c1C(=O)c1c(O)c3c(c(O)c1C2=O)C[C@@](O)(/C(C)=N/NC(=O)c1ccccc1)C[C@@H]3OC1CC(N)C(O)C(C)O1 (some centres undefined)
T/C (endpoint: median survival time, dose: 1.0 mg/kg/injection, schedule: Q01DX009 (ip), vehicle: saline with Tween-80): 114 % of control | T/C [2]: 98 % of control and 104 % of control | T/C (endpoint: median survival time, dose: 2.0 mg/kg/injection, schedule: Q01DX009 (ip), vehicle: saline with Tween-80): 123 % of control | T/C [3]: 103 % of control and 104 % of control | T/C (endpoint: median survival time, dose: 4.0 mg/kg/injection, schedule: Q01DX009 (ip), vehicle: saline with Tween-80): 123 % of control | T/C [4]: 106 % of control and 110 % of control | T/C (endpoint: median survival time, dose: 8.0 mg/kg/injection, schedule: Q01DX009 (ip), vehicle: saline with Tween-80): 101 % of control | T/C [5]: 92 % of control and 116 % of control | T/C (endpoint: median survival time, dose: 16.0 mg/kg/injection, schedule: Q01DX009 (ip), vehicle: saline with Tween-80): 89 % of control

CS(C)=O
T/C (endpoint: median survival time, dose: 1000.0 mg/kg/injection, schedule: Q01DX005 (ip), vehicle: saline): 101 % of control and 106 % of control | T/C (endpoint: median survival time, dose: 1.5 grams/kg/injection, schedule: Q01DX009 (ip), vehicle: saline): 104 % of control | T/C (endpoint: median survival time, dose: 2000.0 mg/kg/injection, schedule: Q01DX005 (ip), vehicle: saline): 98 % of control and 102 % of control | T/C (endpoint: median survival time, dose: 3.0 grams/kg/injection, schedule: Q01DX009 (ip), vehicle: saline): 102 % of control | T/C (endpoint: median survival time, dose: 4000.0 mg/kg/injection, schedule: Q01DX005 (ip), vehicle: saline): 98 % of control and 102 % of control | T/C (endpoint: median survival time, dose: 6.0 grams/kg/injection, schedule: Q01DX009 (ip), vehicle: saline): 104 % of control and 107 % of control | T/C (endpoint: median survival time, dose: 8000.0 mg/kg/injection, schedule: Q01DX005 (ip), vehicle: saline): 118 % of control and 107 % of control

Cc1ncc(CO)c(C)c1O
T/C [6]: 105 % of control and 106 % of control | T/C [7]: 111 % of control and 114 % of control

COC(COC(=O)N1CCN(C=O)CC1)C1=C(N2CC2)C(=O)C(C)=C(N2CC2)C1=O (centres undefined)
T/C (endpoint: median survival time, dose: 0.75 mg/kg/injection, schedule: Q01DX009 (ip), vehicle: saline): 115 % of control | T/C (endpoint: median survival time, dose: 1.5 mg/kg/injection, schedule: Q01DX009 (ip), vehicle: saline): 105 % of control | T/C (endpoint: median survival time, dose: 6.0 mg/kg/injection, schedule: Q01DX009 (ip), vehicle: saline): 160 % of control

Nc1ncnc2c1ncn2C1OC(COP(=O)(O)O)C(O)C1O (centres undefined)
T/C (endpoint: median survival time, dose: 100.0 mg/kg/injection, schedule: Q01DX009 (ip), vehicle: saline): 109 % of control and 110 % of control and 112 % of control | T/C (endpoint: median survival time, dose: 200.0 mg/kg/injection, schedule: Q01DX009 (ip), vehicle: saline): 97 % of control and 104 % of control and 115 % of control | T/C (endpoint: median survival time, dose: 400.0 mg/kg/injection, schedule: Q01DX009 (ip), vehicle: saline): 96 % of control and 101 % of control and 117 % of control | T/C (endpoint: median survival time, dose: 800.0 mg/kg/injection, schedule: Q01DX009 (ip), vehicle: saline): 101 % of control and 108 % of control

CN(N=O)C(N)=O
T/C (endpoint: median survival time, dose: 0.5 mg/kg/injection, schedule: Q01DX009 (ip), vehicle: saline + alcohol): 98 % of control | T/C (endpoint: median survival time, dose: 1.0 mg/kg/injection, schedule: Q01DX009 (ip), vehicle: saline + alcohol): 105 % of control | T/C (endpoint: median survival time, dose: 2.0 mg/kg/injection, schedule: Q01DX009 (ip), vehicle: saline + alcohol): 105 % of control | T/C (endpoint: median survival time, dose: 2.5 mg/kg/injection, schedule: Q01DX001 (ip), vehicle: saline): 89 % of control | T/C (endpoint: median survival time, dose: 4.0 mg/kg/injection, schedule: Q01DX009 (ip), vehicle: saline + alcohol): 114 % of control | T/C (endpoint: median survival time, dose: 5.0 mg/kg/injection, schedule: Q01DX001 (ip), vehicle: saline): 92 % of control | T/C (endpoint: median survival time, dose: 10.0 mg/kg/injection, schedule: Q01DX001 (ip), vehicle: saline + alcohol): 102 % of control | T/C (endpoint: median survival time, dose: 10.0 mg/kg/injection, schedule: Q01DX001 (ip), vehicle: saline): 94 % of control | T/C (endpoint: median survival time, dose: 16.0 mg/kg/injection, schedule: Q01DX009 (ip), vehicle: saline + alcohol): 196 % of control | T/C (endpoint: median survival time, dose: 20.0 mg/kg/injection, schedule: Q01DX001 (ip), vehicle: saline + alcohol): 105 % of control | T/C (endpoint: median survival time, dose: 20.0 mg/kg/injection, schedule: Q01DX001 (ip), vehicle: saline): 103 % of control | T/C (endpoint: median survival time, dose: 40.0 mg/kg/injection, schedule: Q01DX001 (ip), vehicle: saline + alcohol): 107 % of control | T/C [8]: 121 % of control | T/C (endpoint: median survival time, dose: 80.0 mg/kg/injection, schedule: Q01DX001 (ip), vehicle: saline + alcohol): 112 % of control | T/C [9]: 110 % of control

CN(Cc1cnc2nc(N)nc(N)c2n1)c1ccc(C(=O)N[C@@H](CCC(=O)O)C(=O)O)cc1
T/C (endpoint: median survival time, dose: 1.2 mg/kg/injection, schedule: Q04DX003 (ip), vehicle: saline): 114 % of control | T/C (endpoint: median survival time, dose: 2.3 mg/kg/injection, schedule: Q04DX003 (ip), vehicle: saline): 121 % of control | T/C (endpoint: median survival time, dose: 18.4 mg/kg/injection, schedule: Q04DX003 (ip), vehicle: saline): 164 % of control | T/C (endpoint: median survival time, dose: 36.8 mg/kg/injection, schedule: Q04DX003 (ip), vehicle: saline): 164 % of control
